This is an account of results in US10376499B2, “Combination therapy for treatment of resistant bacterial infections” (priority 2014, dated 2019).

In this assay the test system is A. baumannii. As to the kind of experiment: MIC90 of common antibiotics+compound 1, 196 contemporary clinical isolates of A. baumannii (Example 4). Conditions: B-lactam + Cmpd 1 (4 μg/mL).

One may read the MIC90 as the lowest concentration that inhibits either 90% of growth or 90% of the strains tested, depending on the study.

In the case of `C[C@H]1[C@H](NC(=O)/C(=N\OC(C)(C)C(=O)O)c2csc(N)n2)C(=O)N1S(=O)(=O)O` [Aztreonam], the MIC90 is more than 64 µg/mL.
To `CO/N=C(\C(=O)N[C@@H]1C(=O)N2C(C(=O)[O-])=C(C[N+]3(C)CCCC3)CS[C@H]12)c1csc(N)n1` [Cefepime] belongs 32 µg/mL.
As for `CC(C)(O/N=C(\C(=O)N[C@@H]1C(=O)N2C(C(=O)[O-])=C(C[n+]3ccccc3)CS[C@H]12)c1csc(N)n1)C(=O)O` [Ceftazidime], the figure is 32 µg/mL.
